# “Also recorded” adds a separate entry of the source. Where two headings read alike, the source gives them in different places.
# How the values were obtained:
# [1] = system: human GABAARs (α1β2 and α1β2γ2); type: cell-based
# Description: To determine if these compounds targeted human GABAARs, we tested them in a fluorescent imaging plate reader (FLIPR) assay on HEK293 cells transfected with α1β2 and α1β2γ2 human GABAAR subtypes. […]. […] While some of the compounds appeared to function in this assay as negative allosteric modulators (NAMs), reductions in fluorescence were likely due to toxicity-induced cell loss (Fig. 2f, Supplementary Table 5).
# We used the FLIPR system (Molecular Devices) to quantify GABA-evoked activity of human GABAARs. We chose a membrane potential dye (Molecular Devices) to measure changes in membrane potentials and stably transfected HEK293 cells that expressed α1, β2 and γ2. Since we observed an increase in GABA-evoked responses when transfected with γ2 transiently, we describe the cells as having a low level of γ-subunit expression, indicating heterogeneity of GABAAR compositions in the cell (α1β2 or α1β2γ2). To assay for direct agonists, fluorescence was subtracted pre- and post compound addition. To assay for PAMs, cells were treated with compound at 20 uM and then with 5 uM GABA.
# zebrafish [2] = type: in vivo
# Method: (§1) Behavioral assays for pERK. Animals were treated with DMSO or drug for one hour then exposed to a low-volume acoustic stimulus every 10 seconds for 10 minutes. Optovin-treated animals were stimulated with violet light for one second every 10 seconds for 10 minutes. Videos were recorded to measure response to the stimulus and quantified by motion index (MI). […]
# zebrafish [3] = type: in vivo; conditions: for rescue of behavioral phenotypes by pretreatment with the GABAAR antagonist PTX: violet light and eASR phenotypes, in words
# zebrafish [4] = assay: Optovin-response suppression assay (pain-related); conditions: in words; relative to concentrations that caused eASRs
# Description: To determine if any of the hit compounds may be analgesic, we used optovin-induced motor activity as a potential analgesia-related assay.
# zebrafish [5] = assay: Cortisol detection assay; type: in vivo; conditions: 7-day old larvae treated 1 h; in words
# Method: Cortisol levels were measured in zebrafish. Briefly, 15, 7-day old larvae were treated with the indicated compounds for 1 h. Larvae were anesthetized in ice-cold egg water and then snap-froze in an ethanol/dry ice bath. Larvae were then homogenized in 100 μL of water. Cortisol was extracted from the homogenate with 1 mL of ethyl acetate, the resulting supernatant was collected and the solvent allowed to evaporate. Cortisol was dissolved in 0.2% bovine serum albumin (A7030, Sigma) and frozen at −20 °C. For cortisol ELISA experiments, 96-well plates (VWR International) were treated with cortisol antibody (P01-92-94M-P, EastCoast Bio; […] in PBS) for 16 h at 4 °C, washed, and blocked with 0.1% BSA in PBS. Cortisol samples and cortisol-HRP (P91-92-91H, EastCoast Bio) were incubated at room temperature for 2 h and washed extensively with PBS containing 0.05% Tween-20 (Invitrogen). Detection of HRP was performed using tetramethylbenzidine (TMB: 22166-1, Biomol) and Tetrabutylammonium borohydride (TBABH: 230170-10 G, Sigma). Reaction was stopped using 1 M H2SO4. Absorbance was read at 450 nm in an ELISA plate reader (SpectraMax MS, Molecular Devices).
# zebrafish [6] = assay: Viability of anesthetic treated animals; type: in vivo; conditions: for alive/total 10 min: 10 minutes post treatment; for alive/total 1 hour: 1 hour post treatment; for alive/total 5 hours: 5 hours post treatment
# Method: as §1, with “(MI). Animals were immediately” for “(MI).”
# High speed imaging. Digital video was recorded at 500-1000 frames per second using an Integrated Design Tools NX5-S1 digital camera. Assay duration was 500-1000 ms. Low amplitude tap stimuli was delivered as described above. Videos and still images were assembled using Fiji (imageJ) and […]
# RNAscope. Zebrafish (6 dpf) were fixed using 10% normal buffered formaldehyde overnight at 4 °C, dehydrated in 100% methanol and stored at -20 °C until the assay was performed. Fluorescent in situ hybridization was performed using the RNAScope kit (Advanced Cell Diagnostics)4 with the following modifications: target retrieval was performed using 150 mM Tris pH 9.5 for 15 minutes at 70 °C, washes were performed using 0.2x SSCT (0.01% Tween-20, […], 0.3mM TriNa-citrate, pH7), samples were stored overnight after probe hybridization and 2x 5 minute washes in 5x SSC ([…], pH7) at room temperature before amplification and detection steps were performed the following day.
# Viability. Animals were scored manually to determine viability after anesthetic treatments. 100 animals were scored per condition at 10 minutes, 1 hour and 5 hours post treatment. Strong heart rate was observed under a dissecting scope (Leica M-80) for our viability score. […]
# rdkit function FingerprintMols package written for python. Tanimoto similarity function was used with a […]
# [7] = compound at 20 uM then 5 uM GABA, DMSO = 1
# [8] = larvae, low-volume acoustic stimulus
# [9] = compound at 20 uM then 5 uM GABA, Positive/Negative
compound,measurement,setting,value
COc1ccc2[nH]c(-c3ccccc3)c(CCN(C)C)c2c1 [BGC 20-761],Ave Norm FLIPR Score,[1]; [7],1.189
same,"GABAAR PAM activity in FLIPR, in words",[1]; in the presence of GABA,PAM activity was not observed
same,pERK labeling (neuronal activity),zebrafish [2]; in words,reduced neuronal activity throughout most of the brain and increased activity in the caudal hindbrain neuron cluster
same,"enhanced acoustic startle response (eASR) phenotype, in words",zebrafish [3]; [8],reproducibly caused eASRs in vivo
same,rescue of behavioral phenotypes by pretreatment with the GABAAR antagonist PTX,zebrafish [3],partially rescued
same,Phenoscore,"zebrafish [3]; zebrafish, in vivo",0.74
same,optovin response (optovin-induced motor activity),zebrafish [4],blocked the optovin response
"C[C@]12CC[C@H]3[C@@H](CCC4=CC(=O)CC[C@@]43C)[C@@H]1CC[C@@H]2C(=O)CO [DOC, 11-deoxycorticosterone]",Ave Norm FLIPR Score,[1]; [7],-4.308
same,"enhanced acoustic startle response (eASR) phenotype, in words",zebrafish [3]; [8],most potent compounds tested
CCOC(=O)c1cccn1[C@H](C)c1ccccc1 [carboetomidate],cortisol levels,zebrafish [5],did not
same,phenoscore category,zebrafish [3]; average phenoscore at highest scoring treatment,intermediate (intermediate phenoscores (0.51 < x < 0.71))
same,"enhanced acoustic startle response (eASR) phenotype, in words",zebrafish [3]; [8],immobilized zebrafish and caused eASRs
CCCCn1c2ccccc2n2c(C(=O)OCC)c(C)nc12 [compound 5658603],Ave Norm FLIPR Score,[1]; [7],55.24
same,FLIPR Results,[1]; [9],Positive
same,rescue of behavioral phenotypes by pretreatment with the GABAAR antagonist PTX,zebrafish [3],rescued
same,optovin response (optovin-induced motor activity),zebrafish [4],did not suppress the optovin response
Cc1ccc(Cl)cc1NC(=O)COc1c(C)cccc1C [compound 5942595],Ave Norm FLIPR Score,[1]; [7],84.91
same,FLIPR Results,[1]; [9],Positive
same,"GABAAR PAM activity in FLIPR, in words",[1]; in the presence of GABA,potentiated GABAARs significantly greater than positive controls; also recorded: significantly greater than the positive controls
same,rescue of behavioral phenotypes by pretreatment with the GABAAR antagonist PTX,zebrafish [3],partially rescued
same,optovin response (optovin-induced motor activity),zebrafish [4],blocked optovin-induced motor activity
CCOC(=O)c1c(C)nc(-c2ccccc2)nc1NC(=O)Cc1ccccc1 [compound 5951201],cortisol levels,zebrafish [5],None of these compounds reduced cortisol levels
COc1ccccc1N1CCN(C(=O)c2ccc(C(=O)c3c(C)cc(C)cc3C)cc2)CC1 [compound 6013263],Ave Norm FLIPR Score,[1]; [7],1.035
same,rescue of behavioral phenotypes by pretreatment with the GABAAR antagonist PTX,zebrafish [3],partially rescued
COc1ccc(S(=O)(=O)NC2CCCC2)cc1Br [compound 6028165],Ave Norm FLIPR Score,[1]; [7],28.76
same,FLIPR Results,[1]; [9],Positive
same,rescue of behavioral phenotypes by pretreatment with the GABAAR antagonist PTX,zebrafish [3],partially rescued
same,optovin response (optovin-induced motor activity),zebrafish [4],only reduced the optovin response at concentrations that also reduced eASRs
COc1ccc(OC)c(NS(=O)(=O)c2ccc(OC)c(Br)c2)c1 [compound 6029941],Ave Norm FLIPR Score,[1]; [7],14.01
same,FLIPR Results,[1]; [9],Positive
same,cortisol levels,zebrafish [5],None of these compounds reduced cortisol levels
same,rescue of behavioral phenotypes by pretreatment with the GABAAR antagonist PTX,zebrafish [3],partially rescued
CCOc1ccccc1NS(=O)(=O)c1ccc(OC)c(Br)c1 [compound 6030006],Ave Norm FLIPR Score,[1]; [7],3.046
same,rescue of behavioral phenotypes by pretreatment with the GABAAR antagonist PTX,zebrafish [3],partially rescued
CC(C)c1ccc(NS(=O)(=O)c2ccc3c(c2)OCCO3)cc1 [compound 6212662],Ave Norm FLIPR Score,[1]; [7],-5.179
same,optovin response (optovin-induced motor activity),zebrafish [4],only reduced the optovin response at concentrations that also reduced eASRs
O=S(=O)(Nc1cccc(Br)c1)c1ccc2c(c1)OCCO2 [compound 6225936],Ave Norm FLIPR Score,[1]; [7],-14.7
same,cortisol levels,zebrafish [5],None of these compounds reduced cortisol levels
same,optovin response (optovin-induced motor activity),zebrafish [4],only reduced the optovin response at concentrations that also reduced eASRs
CC(C)CC(=O)NC(S)=NCc1ccccc1 [compound 6993015],Ave Norm FLIPR Score,[1]; [7],23.93
same,FLIPR Results,[1]; [9],Positive
CCc1cc2c(=O)c(-c3ccccc3Cl)coc2cc1O [compound 7014338],Ave Norm FLIPR Score,[1]; [7],-6.27
O=C(Cc1ccc(Cl)cc1)Nc1cccc(C(=O)c2ccccc2)c1 [compound 7100598],Ave Norm FLIPR Score,[1]; [7],7.736
same,FLIPR Results,[1]; [9],Positive
Nc1ccc(OC(F)(F)F)cc1C(=O)c1ccccc1 [compound 7113584],Ave Norm FLIPR Score,[1]; [7],-2.455
CCOC(=O)c1c(C)n(Cc2ccco2)c2ccc(OC)cc12 [compound 7114005],Ave Norm FLIPR Score,[1]; [7],15.23
same,FLIPR Results,[1]; [9],Positive
same,optovin response (optovin-induced motor activity),zebrafish [4],blocked optovin-induced motor activity
Cc1cc(C)n2c(SCc3ccc(C(=O)c4ccccc4)cc3)nnc2n1 [compound 7166683],Ave Norm FLIPR Score,[1]; [7],-1.302
Cc1cccc(OCCn2c(NC(=O)c3ccco3)nc3ccccc32)c1 [compound 7273455],Ave Norm FLIPR Score,[1]; [7],7.892
same,FLIPR Results,[1]; [9],Positive
CCOC(=O)c1c(NC(=O)C2CCCC2)sc2c1CCCC2 [compound 7282929],Ave Norm FLIPR Score,[1]; [7],17.15
same,FLIPR Results,[1]; [9],Positive
CN1C(=O)CN=C(c2ccccc2)c2cc(Cl)ccc21 [diazepam],Ave Norm FLIPR Score,[1],-10.9
same,"enhanced acoustic startle response (eASR) phenotype, in words","zebrafish [3]; zebrafish, in vivo",produced eASRs that were relatively weak and inconsistent; also recorded: produced intermediate eASR phenotypes
Cc1cc(/C=C2/SC(=S)NC2=O)c(C)n1-c1cccnc1 [optovin],pERK labeling (neuronal activity),zebrafish [2]; in words,neuronal activity increased in many brain regions including the telencephalon and optic tectum but not in the hindbrain
CC(=O)[C@H]1CC[C@H]2[C@@H]3CCC4=CC(=O)CC[C@]4(C)[C@H]3CC[C@]12C [progesterone],Ave Norm FLIPR Score,[1]; [7],17.8
same,FLIPR Results,[1]; [9],Positive
same,"enhanced acoustic startle response (eASR) phenotype, in words",zebrafish [3]; [8],most potent compounds tested
CC(C)c1cccc(C(C)C)c1O [propofol],Ave Norm FLIPR Score,[1],34.52
same,FLIPR Results,[1],Positive
same,"GABAAR PAM activity in FLIPR, in words",[1],increased fluorescence in the presence of GABA
same,alive/total 10 min,zebrafish [6]; 3 µM,100/100
same,alive/total 1 hour,zebrafish [6]; 3 µM,100/100
same,alive/total 5 hours,zebrafish [6]; 3 µM,100/100
same,alive/total 10 min,zebrafish [6]; 6 µM,100/100
same,alive/total 1 hour,zebrafish [6]; 6 µM,100/100
same,alive/total 5 hours,zebrafish [6]; 6 µM,100/100
same,alive/total 10 min,zebrafish [6]; 12 µM,100/100
same,alive/total 1 hour,zebrafish [6]; 12 µM,100/100
same,alive/total 5 hours,zebrafish [6]; 12 µM,99/100
same,toxicity at the concentrations that caused eASRs,"zebrafish [6]; zebrafish, in vivo",Neither etomidate or propofol was toxic
same,pERK labeling (neuronal activity),"zebrafish [2]; zebrafish, in vivo",broadly reduced
same,"enhanced acoustic startle response (eASR) phenotype, in words","zebrafish [3]; zebrafish, in vivo",caused enhanced acoustic startle responses
CCCC(C)C1(CC)C(=O)NC(=S)NC1=O (stereo not shown) [thiopental],FLIPR Results,[1]; [9],Positive
CCCCNc1c(C(=O)OCC)c(C)nc2c1cnn2CC [tracazolate],Ave Norm FLIPR Score,[1]; [7],50.14
same,FLIPR Results,[1]; [9],Positive
same,"GABAAR PAM activity in FLIPR, in words",[1]; in the presence of GABA,increased fluorescence in the presence of GABA
picrotoxin,Ave Norm FLIPR Score,[1]; [7],-9.76
same,"GABAAR PAM activity in FLIPR, in words",[1]; in the presence of GABA,PAM activity was not observed
same,pERK labeling (neuronal activity),zebrafish [2]; in words,neuronal activity increased in the telencephalon but not in the hindbrain
same,Phenoscore,"zebrafish [3]; zebrafish, in vivo",0.03

# Source: publication PMC6733874, “Zebrafish behavioural profiling identifies GABA and serotonin receptor ligands related to sedation and paradoxical excitation” (Nature Communications, 2019)
